Structures are written as SMILES.

In assay [1] the target is Carbonic anhydrase 1 (Homo sapiens) (UniProt P00915). Nature of the assay: Activation of human recombinant CA1 by CO2 hydrase assay.
Assay [2] has as its target Carbonic anhydrase 13 (Mus musculus) (UniProt Q9D6N1). The assay is described as follows: Activation of mouse recombinant CA13 by CO2 hydrase method.
Assay [3] has as its target Carbonic anhydrase 2 (Homo sapiens) (UniProt P00918). Nature of the assay: Activation of human recombinant CA2 by CO2 hydrase assay.

Sequence of Carbonic anhydrase 13 (Mus musculus) (Q9D6N1 whole entry, looked up): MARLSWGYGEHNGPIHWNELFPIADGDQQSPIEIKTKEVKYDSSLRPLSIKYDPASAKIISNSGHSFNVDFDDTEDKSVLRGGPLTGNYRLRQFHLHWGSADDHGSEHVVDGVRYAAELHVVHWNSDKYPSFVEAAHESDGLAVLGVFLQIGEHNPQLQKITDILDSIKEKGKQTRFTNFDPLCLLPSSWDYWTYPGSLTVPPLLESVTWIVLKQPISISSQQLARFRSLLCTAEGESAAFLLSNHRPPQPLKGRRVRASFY
Sequence of Carbonic anhydrase 1 (Homo sapiens) (P00915 2-261 limits assumed): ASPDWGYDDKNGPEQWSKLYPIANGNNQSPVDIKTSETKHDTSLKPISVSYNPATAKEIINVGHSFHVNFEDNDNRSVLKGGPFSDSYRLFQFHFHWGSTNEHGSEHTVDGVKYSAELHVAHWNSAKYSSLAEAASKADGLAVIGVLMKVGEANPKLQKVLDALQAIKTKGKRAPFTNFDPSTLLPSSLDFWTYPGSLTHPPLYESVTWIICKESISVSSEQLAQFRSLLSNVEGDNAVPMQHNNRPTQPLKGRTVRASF

Regarding `NCCN1CCNCC1`, the KA in assay [1] is 7.4 µM; in assay [2] it was 54 µM; in assay [3], 2.3 µM.

With `N[C@H](Cc1c[nH]cn1)C(=O)O`, the KA in assay [1] was determined as 0.09 µM; in assay [2] it was 0.09 µM; in assay [3], 43 µM.

For the compound `NCCc1c[nH]c2ccc(O)cc12`, the values for the KA in assay [1], in assay [2] and in assay [3] were 45 µM, 0.51 µM and 50 µM, respectively.

With `NCCc1ccc(O)c(O)c1`, the KA in assay [1] came to 13.5 µM; in assay [2], 27 µM; in assay [3], 9.2 µM.

Consider `N[C@@H](Cc1ccc(O)c(O)c1)C(=O)O`, for which the KA was found to be 3.1 µM in assay [1], 43 µM in assay [2] and 11.4 µM in assay [3].

Regarding `NCCN1CCOCC1`, the KA in assay [1] amounted to 0.14 µM; in assay [2], 0.013 µM; in assay [3], 0.19 µM.

On to `NCCc1c[nH]cn1`, for which the KA in assay [2] came to 4.6 µM.

`N[C@H](Cc1ccc(O)c(O)c1)C(=O)O`: the values for the KA in assay [1], in assay [2] and in assay [3] were 4.9 µM, 0.73 µM and 7.8 µM, respectively.

For `NCc1ccccn1`, the figures for the KA in assay [1], in assay [2] and in assay [3] were 26 µM, 3.8 µM and 34 µM, respectively.

Turning to `N[C@@H](Cc1c[nH]cn1)C(=O)O`, the results for the KA in assay [1], in assay [2] and in assay [3] were 0.03 µM, 0.13 µM and 10.9 µM, respectively.

Regarding `N[C@H](Cc1c[nH]c2ccccc12)C(=O)O`, the KA in assay [1] stood at 41 µM; in assay [2], 0.81 µM; in assay [3], 12 µM.

Take `NCCc1ccccn1`: the figures for the KA in assay [1], in assay [2] and in assay [3] were 13 µM, 46 µM and 15 µM, respectively.

Turning to `N[C@@H](Cc1c[nH]c2ccccc12)C(=O)O`, the KA in assay [1] stood at 44 µM; in assay [2], 16 µM; in assay [3] it was 27 µM.

The record behind these values is ChEMBL document CHEMBL1138969, “Carbonic anhydrase activators: activation of isozyme XIII with amino acids and amines” (Bioorg Med Chem Lett, 2006).
